Results from the NIST ThermoML archive (doi:10.1016/j.jct.2014.07.023).
Numbers after ± are expanded uncertainties.

Test: molar heat capacity at constant pressure; xn = mol fraction of the nth substance listed
Conditions: 100 kPa, Liquid, Small sample (50 mg) DSC

OCCCCO [1,4-butanediol] + CO
molar heat capacity at constant pressure [J/K/mol]
Conditions | 293.15 K | 298.15 K | 303.15 K | 308.15 K | 313.15 K | 318.15 K | 323.15 K
x1 = 0.1009 | 92.1 ± 3.9 | 93.2 ± 3.9 | 94.34 ± 4 | 95.55 ± 4.1 | 96.84 ± 4.1 | 98.2 ± 4.2 | 99.61 ± 4.2
x1 = 0.1972 | 103.34 ± 4.4 | 104.65 ± 4.4 | 106 ± 4.5 | 107.43 ± 4.6 | 108.87 ± 4.6 | 110.35 ± 4.7 | 111.91 ± 4.7
x1 = 0.2955 | 114.99 ± 4.9 | 116.42 ± 4.9 | 117.94 ± 5 | 119.47 ± 5.1 | 121.14 ± 5.1 | 122.81 ± 5.2 | 124.59 ± 5.3
x1 = 0.4144 | 129.16 ± 5.5 | 130.79 ± 5.6 | 132.48 ± 5.6 | 134.21 ± 5.7 | 136.07 ± 5.8 | 137.97 ± 5.8 | 139.99 ± 5.9
x1 = 0.5093 | 140.68 ± 6 | 142.41 ± 6 | 144.26 ± 6.1 | 146.17 ± 6.2 | 148.2 ± 6.3 | 150.29 ± 6.3 | 152.45 ± 6.5
x1 = 0.624 | 154.46 ± 6.6 | 156.51 ± 6.6 | 158.55 ± 6.8 | 160.74 ± 6.8 | 162.92 ± 6.9 | 165.25 ± 7 | 167.5 ± 7.1
x1 = 0.6996 | 163.59 ± 7 | 165.7 ± 7 | 167.88 ± 7.1 | 170.13 ± 7.2 | 172.46 ± 7.3 | 174.93 ± 7.4 | 177.4 ± 7.6
x1 = 0.8004 | 175.9 ± 7.5 | 178.18 ± 7.5 | 180.54 ± 7.7 | 182.97 ± 7.8 | 185.48 ± 7.9 | 188.08 ± 8 | 190.75 ± 8.1
x1 = 0.8591 | 183.21 ± 7.8 | 185.59 ± 7.9 | 188.05 ± 7.9 | 190.59 ± 8.1 | 193.21 ± 8.2 | 195.91 ± 8.3 | 198.7 ± 8.4
x1 = 0.9043 | 188.15 ± 7.9 | 190.69 ± 8.1 | 193.23 ± 8.2 | 195.85 ± 8.3 | 198.55 ± 8.5 | 201.34 ± 8.5 | 204.22 ± 8.6
x1 = 0.9565 | 194.9 ± 8.2 | 197.44 ± 8.4 | 200.07 ± 8.5 | 202.87 ± 8.6 | 205.67 ± 8.8 | 208.56 ± 8.8 | 211.63 ± 9
x1 = 1 | 201.15 ± 8.6 | 203.76 ± 8.7 | 206.56 ± 8.7 | 209.44 ± 8.9 | 212.33 ± 9 | 215.39 ± 9.1 | 218.54 ± 9.3

CCC(O)CO (stereo not drawn) [1,2-butanediol] + CO
molar heat capacity at constant pressure [J/K/mol]
Conditions | 293.15 K | 298.15 K | 303.15 K | 308.15 K | 313.15 K | 318.15 K | 323.15 K
x1 = 0.0476 | 87.09 ± 3.7 | 88.16 ± 3.7 | 89.28 ± 3.8 | 90.46 ± 3.8 | 91.68 ± 3.9 | 92.97 ± 3.9 | 94.33 ± 4
x1 = 0.2098 | 110.52 ± 4.7 | 111.89 ± 4.7 | 113.35 ± 4.8 | 114.81 ± 4.9 | 116.36 ± 5 | 117.95 ± 5 | 119.55 ± 5.1
x1 = 0.2964 | 123.04 ± 5.2 | 124.67 ± 5.3 | 126.29 ± 5.4 | 127.97 ± 5.4 | 129.69 ± 5.5 | 131.42 ± 5.6 | 133.19 ± 5.7
x1 = 0.3913 | 137.52 ± 5.9 | 139.33 ± 5.9 | 141.14 ± 6 | 143 ± 6.1 | 144.86 ± 6.1 | 146.72 ± 6.2 | 148.64 ± 6.3
x1 = 0.4706 | 148.79 ± 6.3 | 150.69 ± 6.4 | 152.65 ± 6.5 | 154.55 ± 6.5 | 156.51 ± 6.6 | 158.53 ± 6.7 | 160.49 ± 6.8
x1 = 0.6016 | 168.53 ± 7.2 | 170.74 ± 7.2 | 172.88 ± 7.4 | 175.02 ± 7.4 | 177.24 ± 7.5 | 179.38 ± 7.6 | 181.52 ± 7.7
x1 = 0.6991 | 182.48 ± 7.8 | 184.81 ± 7.8 | 187.13 ± 7.9 | 189.46 ± 8.1 | 191.71 ± 8.1 | 194.03 ± 8.2 | 196.36 ± 8.4
x1 = 0.8042 | 198.84 ± 8.4 | 201.2 ± 8.5 | 203.65 ± 8.7 | 206.01 ± 8.7 | 208.45 ± 8.8 | 210.81 ± 9 | 213.25 ± 9.1
x1 = 0.8917 | 211.25 ± 9 | 213.85 ± 9.1 | 216.37 ± 9.2 | 218.97 ± 9.3 | 221.48 ± 9.4 | 224 ± 9.5 | 226.43 ± 9.6
x1 = 0.9224 | 216.09 ± 9.2 | 218.66 ± 9.2 | 221.31 ± 9.4 | 223.88 ± 9.5 | 226.45 ± 9.6 | 229.02 ± 9.7 | 231.59 ± 9.8
x1 = 0.9627 | 222 ± 9.4 | 224.64 ± 9.5 | 227.27 ± 9.7 | 229.91 ± 9.8 | 232.46 ± 9.9 | 235.01 ± 9.9 | 237.65 ± 10
x1 = 1 | 228.1 ± 9.6 | 230.8 ± 9.8 | 233.5 ± 9.9 | 236.21 ± 10 | 238.91 ± 10 | 241.52 ± 10 | 244.23 ± 10

CC(O)CCO (stereo not drawn) [1,3-butanediol] + CO
molar heat capacity at constant pressure [J/K/mol]
Conditions | 293.15 K | 298.15 K | 303.15 K | 308.15 K | 313.15 K | 318.15 K | 323.15 K
x1 = 0.097 | 92.98 ± 4 | 94.08 ± 4 | 95.24 ± 4 | 96.45 ± 4.1 | 97.77 ± 4.1 | 99.12 ± 4.2 | 100.56 ± 4.3
x1 = 0.1924 | 105.32 ± 4.5 | 106.66 ± 4.5 | 108.04 ± 4.6 | 109.47 ± 4.6 | 110.98 ± 4.7 | 112.54 ± 4.8 | 114.18 ± 4.8
x1 = 0.2893 | 118.06 ± 5 | 119.57 ± 5.1 | 121.13 ± 5.1 | 122.79 ± 5.2 | 124.45 ± 5.3 | 126.21 ± 5.4 | 128.02 ± 5.4
x1 = 0.3902 | 131.62 ± 5.6 | 133.42 ± 5.6 | 135.23 ± 5.7 | 137.09 ± 5.8 | 139 ± 5.9 | 140.97 ± 6 | 142.94 ± 6.1
x1 = 0.4943 | 145.68 ± 6.2 | 147.68 ± 6.3 | 149.69 ± 6.4 | 151.69 ± 6.4 | 153.82 ± 6.5 | 155.95 ± 6.6 | 158.19 ± 6.7
x1 = 0.6067 | 161 ± 6.9 | 163.22 ± 6.9 | 165.51 ± 7 | 167.79 ± 7.1 | 170.15 ± 7.2 | 172.5 ± 7.3 | 174.92 ± 7.4
x1 = 0.7843 | 185.37 ± 7.8 | 187.93 ± 8 | 190.57 ± 8.1 | 193.28 ± 8.2 | 195.92 ± 8.3 | 198.72 ± 8.5 | 201.51 ± 8.5
x1 = 0.9064 | 202.23 ± 8.6 | 205.11 ± 8.7 | 207.99 ± 8.8 | 210.95 ± 9 | 213.91 ± 9.1 | 216.88 ± 9.2 | 219.93 ± 9.3
x1 = 0.9165 | 203.63 ± 8.6 | 206.44 ± 8.8 | 209.34 ± 8.9 | 212.24 ± 9 | 215.22 ± 9.1 | 218.21 ± 9.3 | 221.28 ± 9.4
x1 = 0.9242 | 204.61 ± 8.7 | 207.52 ± 8.8 | 210.44 ± 8.9 | 213.44 ± 9.1 | 216.44 ± 9.2 | 219.44 ± 9.3 | 222.53 ± 9.4
x1 = 0.9624 | 210.08 ± 8.9 | 213.07 ± 9.1 | 216.06 ± 9.1 | 219.14 ± 9.3 | 222.22 ± 9.4 | 225.38 ± 9.6 | 228.55 ± 9.7
x1 = 1 | 215.84 ± 9.2 | 218.9 ± 9.3 | 222.06 ± 9.5 | 225.21 ± 9.6 | 228.37 ± 9.7 | 231.61 ± 9.8 | 234.86 ± 10

CC(O)C(C)O (stereo not drawn) [2,3-butanediol] + CO
molar heat capacity at constant pressure [J/K/mol]
Conditions | 293.15 K | 298.15 K | 303.15 K | 308.15 K | 313.15 K | 318.15 K | 323.15 K
x1 = 0.0456 | 86.73 ± 3.7 | 87.8 ± 3.7 | 88.95 ± 3.8 | 90.13 ± 3.8 | 91.37 ± 3.9 | 92.66 ± 3.9 | 94.01 ± 4
x1 = 0.0847 | 92.44 ± 3.9 | 93.66 ± 4 | 94.92 ± 4 | 96.21 ± 4.1 | 97.54 ± 4.1 | 98.95 ± 4.2 | 100.35 ± 4.3
x1 = 0.1972 | 108.82 ± 4.6 | 110.3 ± 4.7 | 111.78 ± 4.7 | 113.35 ± 4.8 | 114.96 ± 4.9 | 116.61 ± 5 | 118.31 ± 5
x1 = 0.2792 | 121.32 ± 5.2 | 122.96 ± 5.2 | 124.65 ± 5.3 | 126.34 ± 5.4 | 128.08 ± 5.5 | 129.81 ± 5.5 | 131.6 ± 5.6
x1 = 0.3824 | 136.66 ± 5.8 | 138.56 ± 5.9 | 140.46 ± 6 | 142.41 ± 6 | 144.36 ± 6.1 | 146.37 ± 6.2 | 148.43 ± 6.3
x1 = 0.4673 | 150.38 ± 6.4 | 152.39 ± 6.5 | 154.41 ± 6.6 | 156.48 ± 6.6 | 158.55 ± 6.7 | 160.68 ± 6.8 | 162.81 ± 6.9
x1 = 0.5862 | 168.13 ± 7.1 | 170.37 ± 7.2 | 172.69 ± 7.3 | 174.93 ± 7.4 | 177.25 ± 7.5 | 179.63 ± 7.6 | 182.01 ± 7.7
x1 = 0.7041 | 186.64 ± 7.9 | 189.05 ± 8 | 191.46 ± 8.1 | 193.94 ± 8.2 | 196.41 ± 8.3 | 198.89 ± 8.5 | 201.45 ± 8.5
x1 = 0.8169 | 204.52 ± 11 | 207.14 ± 11 | 209.84 ± 11 | 212.55 ± 11 | 215.17 ± 11 | 217.87 ± 12 | 220.58 ± 12
x1 = 0.8832 | 214.76 ± 9.1 | 217.34 ± 9.3 | 220.01 ± 9.3 | 222.68 ± 9.4 | 225.26 ± 9.6 | 227.93 ± 9.7 | 230.59 ± 9.8
x1 = 0.9271 | 221.76 ± 9.4 | 224.59 ± 9.5 | 227.34 ± 9.6 | 230.18 ± 9.8 | 233.01 ± 9.9 | 235.93 ± 10 | 238.77 ± 10
x1 = 0.9501 | 225.38 ± 9.6 | 228 ± 9.7 | 230.7 ± 9.8 | 233.32 ± 9.9 | 236.11 ± 10 | 238.82 ± 10 | 241.61 ± 10
x1 = 1 | 233.95 ± 9.9 | 236.66 ± 10 | 239.36 ± 10 | 242.07 ± 10 | 244.77 ± 10 | 247.47 ± 11 | 250.18 ± 11
